Measured values published in the NIST ThermoML archive (doi:10.1016/j.jct.2012.11.032).

Experiment: xn = mol fraction of the nth substance listed
Conditions: 101 kPa, Liquid; for speed of sound: Sing-around technique in a fixed-path interferometer; for mass density: Vibrating tube method

CCCCCCCCCCn1cc[n+](C)c1.[Cl-] [1-decyl-3-methylimidazolium chloride] + O
Conditions | mass density [kg/m3] | speed of sound [m/s]
283 K, x1 = 0.000105 | 999.733 | 1449.9
283 K, x1 = 0.000185 | 999.76 | 1451.1
283 K, x1 = 0.000277 | 999.776 | 1452.4
283 K, x1 = 0.000377 | 999.82 | 1453.9
283 K, x1 = 0.000452 | 999.839 | 1454.6
283 K, x1 = 0.000546 | 999.878 | 1455.8
283 K, x1 = 0.000728 | 999.945 | 1458.5
283 K, x1 = 0.000836 | 999.997 | 1460.3
283 K, x1 = 0.001002 | 1000.05 | 1462.6
283 K, x1 = 0.001099 | 1000.05 | 1463.7
283 K, x1 = 0.00118 | 1000.1 | 1464.7
283 K, x1 = 0.001259 | 1000.11 | 1465
283 K, x1 = 0.001351 | 1000.13 | 1465.9
283 K, x1 = 0.001452 | 1000.14 | 1466.5
283 K, x1 = 0.001539 | 1000.14 | 1467.1
283 K, x1 = 0.001631 | 1000.14 | 1467.9
283 K, x1 = 0.001869 | 1000.13 | 1468.9
283 K, x1 = 0.001988 | 1000.13 | 1469.3
288 K, x1 = 0.000105 | 999.142 | 1467.8
288 K, x1 = 0.000185 | 999.164 | 1468.9
288 K, x1 = 0.000277 | 999.176 | 1470.2
288 K, x1 = 0.000377 | 999.206 | 1471.5
288 K, x1 = 0.000452 | 999.216 | 1472.4
288 K, x1 = 0.000546 | 999.247 | 1473.5
288 K, x1 = 0.000728 | 999.3 | 1476
288 K, x1 = 0.000836 | 999.347 | 1477.5
288 K, x1 = 0.001002 | 999.38 | 1479.5
288 K, x1 = 0.001099 | 999.375 | 1480.5
288 K, x1 = 0.00118 | 999.412 | 1481.3
288 K, x1 = 0.001259 | 999.417 | 1481.7
288 K, x1 = 0.001351 | 999.423 | 1482.5
288 K, x1 = 0.001452 | 999.42 | 1483
288 K, x1 = 0.001539 | 999.421 | 1483.4
288 K, x1 = 0.001631 | 999.412 | 1483.9
288 K, x1 = 0.001869 | 999.393 | 1484.8
288 K, x1 = 0.001988 | 999.38 | 1485.2
293 K, x1 = 0.000105 | 998.25 | 1483.9
293 K, x1 = 0.000185 | 998.269 | 1484.9
293 K, x1 = 0.000277 | 998.279 | 1486
293 K, x1 = 0.000377 | 998.297 | 1487.2
293 K, x1 = 0.000452 | 998.301 | 1488.1
293 K, x1 = 0.000546 | 998.325 | 1489.2
293 K, x1 = 0.000728 | 998.361 | 1491.4
293 K, x1 = 0.000836 | 998.402 | 1492.8
293 K, x1 = 0.001002 | 998.424 | 1494.6
293 K, x1 = 0.001099 | 998.408 | 1495.4
293 K, x1 = 0.00118 | 998.437 | 1496.1
293 K, x1 = 0.001259 | 998.436 | 1496.5
293 K, x1 = 0.001351 | 998.434 | 1497.1
293 K, x1 = 0.001452 | 998.423 | 1497.6
293 K, x1 = 0.001539 | 998.415 | 1497.9
293 K, x1 = 0.001631 | 998.403 | 1498.3
293 K, x1 = 0.001869 | 998.372 | 1499
293 K, x1 = 0.001988 | 998.354 | 1499.4
298 K, x1 = 0.000105 | 997.096 | 1498
298 K, x1 = 0.000185 | 997.108 | 1498.9
298 K, x1 = 0.000277 | 997.114 | 1500
298 K, x1 = 0.000377 | 997.124 | 1501.1
298 K, x1 = 0.000452 | 997.122 | 1501.8
298 K, x1 = 0.000546 | 997.141 | 1502.8
298 K, x1 = 0.000728 | 997.166 | 1504.9
298 K, x1 = 0.000836 | 997.199 | 1506.1
298 K, x1 = 0.001002 | 997.205 | 1507.7
298 K, x1 = 0.001099 | 997.182 | 1508.4
298 K, x1 = 0.00118 | 997.205 | 1509
298 K, x1 = 0.001259 | 997.199 | 1509.4
298 K, x1 = 0.001351 | 997.192 | 1509.9
298 K, x1 = 0.001452 | 997.175 | 1510.3
298 K, x1 = 0.001539 | 997.164 | 1510.6
298 K, x1 = 0.001631 | 997.146 | 1510.9
298 K, x1 = 0.001869 | 997.078 | 1511.5
298 K, x1 = 0.001988 | 997.079 | 1511.8
303 K, x1 = 0.000105 | 995.704 | 1510.3
303 K, x1 = 0.000185 | 995.706 | 1511.1
303 K, x1 = 0.000277 | 995.707 | 1512.1
303 K, x1 = 0.000377 | 995.711 | 1513.1
303 K, x1 = 0.000452 | 995.705 | 1513.8
303 K, x1 = 0.000546 | 995.718 | 1514.7
303 K, x1 = 0.000728 | 995.732 | 1516.6
303 K, x1 = 0.000836 | 995.759 | 1517.7
303 K, x1 = 0.001002 | 995.75 | 1519.2
303 K, x1 = 0.001099 | 995.72 | 1519.7
303 K, x1 = 0.00118 | 995.739 | 1520.3
303 K, x1 = 0.001259 | 995.728 | 1520.6
303 K, x1 = 0.001351 | 995.715 | 1521
303 K, x1 = 0.001452 | 995.694 | 1521.5
303 K, x1 = 0.001539 | 995.683 | 1521.6
303 K, x1 = 0.001631 | 995.659 | 1521.9
303 K, x1 = 0.001869 | 995.549 | 1522.4
303 K, x1 = 0.001988 | 995.574 | 1522.6
308 K, x1 = 0.000105 | 994.091 | 1520.9
308 K, x1 = 0.000185 | 994.084 | 1521.6
308 K, x1 = 0.000277 | 994.08 | 1522.5
308 K, x1 = 0.000377 | 994.079 | 1523.4
308 K, x1 = 0.000452 | 994.068 | 1524.1
308 K, x1 = 0.000546 | 994.074 | 1524.9
308 K, x1 = 0.000728 | 994.082 | 1526.7
308 K, x1 = 0.000836 | 994.1 | 1527.7
308 K, x1 = 0.001002 | 994.083 | 1528.9
308 K, x1 = 0.001099 | 994.044 | 1529.4
308 K, x1 = 0.00118 | 994.057 | 1529.9
308 K, x1 = 0.001259 | 994.044 | 1530.2
308 K, x1 = 0.001351 | 994.028 | 1530.5
308 K, x1 = 0.001452 | 994.006 | 1531
308 K, x1 = 0.001539 | 993.985 | 1531.1
308 K, x1 = 0.001631 | 993.962 | 1531.3
308 K, x1 = 0.001869 | 993.807 | 1531.7
308 K, x1 = 0.001988 | 993.859 | 1531.9
313 K, x1 = 0.000105 | 992.269 | 1529.9
313 K, x1 = 0.000185 | 992.257 | 1530.5
313 K, x1 = 0.000277 | 992.252 | 1531.4
313 K, x1 = 0.000377 | 992.242 | 1532.2
313 K, x1 = 0.000452 | 992.229 | 1532.8
313 K, x1 = 0.000546 | 992.227 | 1533.5
313 K, x1 = 0.000728 | 992.229 | 1535.1
313 K, x1 = 0.000836 | 992.239 | 1536
313 K, x1 = 0.001002 | 992.214 | 1537.2
313 K, x1 = 0.001099 | 992.17 | 1537.6
313 K, x1 = 0.00118 | 992.176 | 1538
313 K, x1 = 0.001259 | 992.167 | 1538.3
313 K, x1 = 0.001351 | 992.142 | 1538.6
313 K, x1 = 0.001452 | 992.118 | 1539
313 K, x1 = 0.001539 | 992.095 | 1539
313 K, x1 = 0.001631 | 992.066 | 1539.2
313 K, x1 = 0.001869 | 991.864 | 1539.5
313 K, x1 = 0.001988 | 991.947 | 1539.7
